# In EPA's ToxValDB 9.5:
# Where “and” joins values, the source holds several entries; their conditions need not be identical. Identical values can stand only once.
# Key:
# [1] = tested on: Rattus norvegicus; conditions: oral; for NOAEL: chronic, diet, M, Fischer 344, Whole Body Effects
# [2] = tested on: Canidae; conditions: oral, M/F, Dog Other; for LEL / NOEL: chronic, diet
# [3] = tested on: Mus musculus; conditions: chronic, M/F; for LEL / NOEL: diet
# [4] = tested on: Rattus norvegicus; conditions: oral, gavage
# [5] = tested on: Rattus norvegicus; conditions: repeat dose other; oral
# [6] = tested on: Rattus norvegicus; conditions: oral, M/F
# [7] = tested on: Mus musculus; conditions: duration: 10 days, inhalation, CF1
# [8] = tested on: Oryctolagus sp.; conditions: duration: 13 days, inhalation, New Zealand
# [9] = tested on: Rattus norvegicus; conditions: duration: 10 days, inhalation, Sprague-Dawley
# [10] = tested on: Mus musculus; conditions: developmental; duration: 9 days; inhalation; whole body; M/F; CF1; developmental
# [11] = tested on: Rattus norvegicus; conditions: M/F
# [12] = tested on: Rattus norvegicus; conditions: Hershberger; duration: 10 days; oral; gavage; Sprague-Dawley; active + Negative + Antiandrogenic + anti-androgenic + Delayed PPS and decreased AST wt at 375 / bw decreased 6-7% / increased liver wt in…
# [13] = tested on: Rattus norvegicus; conditions: subchronic, duration: 13 weeks
# [14] = duration: 2 years, reduced body weight gain
# [15] = duration: 2 years, Increased mean blood sugar concentration + slight hypothermia
# [16] = duration: 20 months, oral, increased absolute liver weight and nonneoplastic lesions
# [17] = short-term, duration: 28 days, M, Sprague-Dawley, Clinical Observation: Respiratory rate decrease, Incomplete eyelid opening SalivationSpontaneous locomotion decrease + Body Weight Changes: …
# [18] = short-term, duration: 28 days, M, Sprague-Dawley, Clinical Observation: Spontaneous locomotion decrease, Respiratory rate decrease, Salivation + Body Weight Changes: decrease + Food …
# [19] = duration: 2 years, oral, centrilobular hepatocytomegaly (males)
# [20] = chronic, diet, liver cell polymorphism
# [21] = subchronic, mortality and body weight loss
# [22] = duration: 6 months, liver and thyroid effects
# [23] = inhalation, B6C3F1, suppurative inflammation of the nose
structure (smiles),measurement,setting,value
"Cc1c(N)cccc1N [2,6-Toluenediamine]",NOAEL,[1]; duration: 2 years,25 mg/kg-day
same,NOAEL,[1]; duration: 91 days,62 mg/kg-day
C=CCOC(Cn1ccnc1)c1ccc(Cl)cc1Cl (centres undefined) [Imazalil],LEL,[2]; [14],5 mg/kg-day
same,NOEL,[2]; [14],1.25 mg/kg-day
Cc1ccc(N=CN(C)C=Nc2ccc(C)cc2C)c(C)c1 [Amitraz],LEL,[2]; [15],1 mg/kg-day
same,NOEL,[2]; [15],0.25 mg/kg-day
CCOc1cc(Oc2ccc(C(F)(F)F)cc2Cl)ccc1[N+](=O)[O-] [Oxyfluorfen],LEL,[3]; [16],3 mg/kg-day
same,NOEL,[3]; [16],0.3 mg/kg-day
ClC(Cl)Br [Bromodichloromethane],NOAEL,[4]; [17],40 mg/kg-day
same,NOEL,[4]; [17],< 40 mg/kg-day
same,NOAEL,[4]; [18],40 mg/kg-day
same,NOEL,[4]; [18],< 40 mg/kg-day
same,NOEL,"[4]; subchronic, duration: 13 weeks, M/F, Fischer 344, Deaths + Body Weight Changes: decrease + Histopathology: Liver/centrilobular-Degeneration Liver/bile duct -Hyperplasia Liver-Enlargement, …",38 mg/kg-day
same,LOAEL,"[3]; oral, gavage, renal cytomegaly",25 mg/kg-day
O=[Se](=O)([O-])[O-] [Selenate],LOAEL,[5],0.33 mg/kg-day
same,NOAEL,[5],0.2 mg/kg-day
[Tl] [Thallium],LOAEL,"[1]; subchronic, duration: 90 days, gavage, M/F, Sprague-Dawley",0.04 mg/kg-day
COc1nc(C)nc(NC(=O)NS(=O)(=O)c2ccccc2OCCCl)n1 [Triasulfuron],LEL,[3]; [19],129 mg/kg-day
same,NOEL,[3]; [19],1.2 mg/kg-day
"Clc1ccc2oc3c(Cl)c(Cl)c(Cl)c(Cl)c3c2c1 [Dibenzofuran, 1,2,3,4,8-pentachloro-]",NOAEL,[5],0.048 mg/kg-day
C=CCl [Vinyl chloride],LOAEL,[5],1.7 mg/kg-day
same,NOAEL,[5],0.17 mg/kg-day
same,LOAEL,[6]; [20],1.3 mg/kg-day
same,NOAEL,[6]; [20],0.13 mg/kg-day
same,NOAEL,[7]; developmental,1280 mg/m3
same,NOAEL,"[7]; reproduction developmental, F",128 mg/m3
same,NOAEL,[8]; developmental,6390 mg/m3
same,NOAEL,"[8]; reproduction developmental, F",< 1280 mg/m3
same,NOAEL,[9]; developmental,6390 mg/m3
same,NOAEL,"[9]; reproduction developmental, F",< 1280 mg/m3
same,NOAEL,[10],128 mg/m3
same,NOAEL,"[11]; chronic, duration: 149 weeks, oral, diet, Wistar, hepatic",0.17 mg/kg-day
O=C(O)C(Cl)Cl [Dichloroacetic acid],LOAEL,"[2]; subchronic, lesions in testes, cerebrum, cerebellum, and liver",12.5 mg/kg-day
[O]=[Cr][O][Cr]=[O] [Chromium(III) oxide],NOAEL,[5],2740 mg/kg-day
CCOC(C)=O [Ethyl acetate],LOAEL,[5],360 mg/kg-day
same,NOAEL,[5],90 mg/kg-day
same,LOAEL,[6]; [21],3600 mg/kg-day
same,NOEL,[6]; [21],900 mg/kg-day
CNc1cnn(-c2cccc(C(F)(F)F)c2)c(=O)c1Cl [Norflurazon],LOEL,[12],375 mg/kg-day and 1000 mg/kg-day
same,NOEL,[12],185 mg/kg-day and 300 mg/kg-day
same,LEL,[2]; [22],10.2 mg/kg-day
same,NOEL,[2]; [22],3.75 mg/kg-day
ClC1=C(Cl)C(Cl)(Cl)C(Cl)=C1Cl [Hexachlorocyclopentadiene],NOAEL,"[13]; inhalation, intermittent, Nasal cavity: Squamous metaplasia",1.67 mg/m3
same,NOAEL,"[13]; oral, Forestomach: Lesions",7.1 mg/kg-day
same,LOAEL,[3]; [23],2.23 mg/m3
same,NOAEL,[3]; [23],0.56 mg/m3
same,LOAEL,"[11]; chronic, duration: 2 years, inhalation, Fischer 344, respiratory",0.112 mg/m3
same,NOAEL,"[11]; chronic, duration: 14 weeks, inhalation, Sprague-Dawley, respiratory",2.23 mg/m3
same,NOAEL,"[11]; subchronic, duration: 13 weeks, oral, gavage, Fischer 344, renal",19 mg/kg-day
